Assay results reported in ChEMBL document CHEMBL5335843, “Application of tobramycin benzyl ether as an antibiotic adjuvant capable of sensitizing multidrug-resistant Gram-negative bacteria to rifampicin” (2024).

Columns and labels:
Escherichia coli [1] = experiment: Antibiotic adjuvant activity against multi-drug resistant Escherichia coli clinical isolate EC94474 assessed as minocycline MIC incubated for 18 hrs in presence of minocycline by two fold broth microdilution checkerboard assay; type: functional
Pseudomonas aeruginosa [2] = experiment: Antibiotic adjuvant activity against multi-drug resistant Pseudomonas aeruginosa clinical isolate PA264 assessed as fold potentiation incubated for 18 hrs in presence of Rifampicin by two fold broth microdilution checkerboard assay; type: functional
Escherichia coli [3] = experiment: Antibiotic adjuvant activity against multi-drug resistant Escherichia coli clinical isolate 107115 assessed as fold potentiation incubated for 18 hrs in presence of Rifampicin by two fold broth microdilution checkerboard assay; type: functional
Acinetobacter baumannii [4] = experiment: Antibacterial activity against multi-drug resistant Acinetobacter baumannii clinical isolate 110193 assessed as inhibition of bacterial growth incubated for 18 hrs by two fold broth microdilution assay; type: functional
Pseudomonas aeruginosa [5] = experiment: Antibiotic adjuvant activity against Pseudomonas aeruginosa PAO1 assessed as fold potentiation incubated for 18 hrs in presence of Rifampicin by two fold broth microdilution checkerboard assay; type: functional
Pseudomonas aeruginosa [6] = experiment: Antibiotic adjuvant activity against multi-drug resistant Pseudomonas aeruginosa clinical isolate PA264 assessed as inhibition of bacterial growth incubated for 18 hrs in presence of doxycycline by two fold broth microdilution checkerboard assay; type: functional
Acinetobacter baumannii [7] = experiment: Antibacterial activity against multi-drug resistant Acinetobacter baumannii clinical isolate AB027 assessed as inhibition of bacterial growth incubated for 18 hrs by two fold broth microdilution assay; type: functional
Pseudomonas aeruginosa [8] = experiment: Antibiotic adjuvant activity against multi-drug resistant Pseudomonas aeruginosa clinical isolate PA262 assessed as inhibition of bacterial growth incubated for 18 hrs in presence of Rifampicin by two fold broth microdilution checkerboard assay; type: functional
Pseudomonas aeruginosa [9] = experiment: Antibiotic adjuvant activity against multi-drug resistant Pseudomonas aeruginosa clinical isolate PA114228 assessed as fractional inhibitory concentration index incubated for 18 hrs in presence of minocycline by two fold broth microdilution checkerboard assay; type: functional
Escherichia coli [10] = experiment: Antibiotic adjuvant activity against multi-drug resistant Escherichia coli clinical isolate EC107115 assessed as fractional inhibitory concentration index incubated for 18 hrs in presence of doxycycline by two fold broth microdilution checkerboard assay; type: functional
Pseudomonas aeruginosa [11] = experiment: Antibiotic adjuvant activity against Pseudomonas aeruginosa PAO1 assessed as fold potentiation incubated for 18 hrs in presence of doxycycline by two fold broth microdilution checkerboard assay; type: functional
Pseudomonas aeruginosa [12] = experiment: Antibacterial activity against multi-drug resistant Pseudomonas aeruginosa clinical isolate PA264 assessed as inhibition of bacterial growth incubated for 18 hrs by two fold broth microdilution assay; type: functional
Acinetobacter baumannii [13] = experiment: Antibiotic adjuvant activity against multi-drug resistant Acinetobacter baumannii clinical isolate 110193 assessed as rifampicin MIC incubated for 18 hrs in presence of Rifampicin by two fold broth microdilution checkerboard assay; type: functional
Acinetobacter baumannii [14] = experiment: Antibiotic adjuvant activity against multi-drug resistant Acinetobacter baumannii clinical isolate AB027 assessed as rifampicin MIC incubated for 18 hrs in presence of Rifampicin by two fold broth microdilution checkerboard assay; type: functional
Escherichia coli [15] = experiment: Antibiotic adjuvant activity against multi-drug resistant Escherichia coli clinical isolate EC107115 assessed as fold potentiation incubated for 18 hrs in presence of minocycline by two fold broth microdilution checkerboard assay; type: functional
Pseudomonas aeruginosa [16] = experiment: Antibiotic adjuvant activity against multi-drug resistant Pseudomonas aeruginosa clinical isolate PA259 assessed as fractional inhibitory concentration index incubated for 18 hrs in presence of doxycycline by two fold broth microdilution checkerboard assay; type: functional
Pseudomonas aeruginosa [17] = experiment: Antibiotic adjuvant activity against multi-drug resistant Pseudomonas aeruginosa clinical isolate PA114228 assessed as inhibition of bacterial growth incubated for 18 hrs in presence of minocycline by two fold broth microdilution checkerboard assay; type: functional
Acinetobacter baumannii [18] = experiment: Antibiotic adjuvant activity against multi-drug resistant Acinetobacter baumannii clinical isolate LAC-4 assessed as fractional inhibitory concentration index incubated for 18 hrs in presence of Rifampicin by two fold broth microdilution checkerboard assay; type: functional
Enterobacterales = experiment: Antibiotic adjuvant activity against Enterobacterales assessed as minocycline MIC incubated for 18 hrs in presence of minocycline by two fold broth microdilution checkerboard assay; type: functional
Pseudomonas aeruginosa [19] = experiment: Antibiotic adjuvant activity against multi-drug resistant Pseudomonas aeruginosa clinical isolate 114228 assessed as inhibition of bacterial growth incubated for 18 hrs in presence of Rifampicin by two fold broth microdilution checkerboard assay; type: functional
Acinetobacter baumannii [20] = experiment: Antibiotic adjuvant activity against multi-drug resistant Acinetobacter baumannii clinical isolate LAC-4 assessed as inhibition of bacterial growth incubated for 18 hrs in presence of Rifampicin by two fold broth microdilution checkerboard assay; type: functional
Cell membrane = experiment: Induction of outer membrane permeabilization in Escherichia coli ATCC 25922 assessed as increase fluorescence intensity by measuring NPN uptake factor at 4 to 8 uM by fluorescence based analysis; type: subcellular; conditions: dose 4-8 µM, TDE = time-dependent effect
Escherichia coli [21] = experiment: Antibiotic adjuvant activity against Escherichia coli ATCC 25922 assessed as minocycline MIC incubated for 18 hrs in presence of minocycline by two fold broth microdilution checkerboard assay; type: functional
Pseudomonas aeruginosa [22] = experiment: Antibiotic adjuvant activity against multi-drug resistant Pseudomonas aeruginosa clinical isolate PA259 assessed as inhibition of bacterial growth incubated for 18 hrs in presence of Rifampicin by two fold broth microdilution checkerboard assay; type: functional
Pseudomonas aeruginosa [23] = experiment: Antibiotic adjuvant activity against multi-drug resistant Pseudomonas aeruginosa clinical isolate PA264 assessed as fractional inhibitory concentration index incubated for 18 hrs in presence of minocycline by two fold broth microdilution checkerboard assay; type: functional
Pseudomonas aeruginosa [24] = experiment: Antibiotic adjuvant activity against Pseudomonas aeruginosa PAO1 assessed as minocycline MIC incubated for 18 hrs in presence of minocycline by two fold broth microdilution checkerboard assay; type: functional
Pseudomonas aeruginosa [25] = experiment: Antibacterial activity against multi-drug resistant Pseudomonas aeruginosa clinical isolate PA259 assessed as inhibition of bacterial growth incubated for 18 hrs by two fold broth microdilution assay; type: functional
Escherichia coli [26] = experiment: Antibiotic adjuvant activity against multi-drug resistant Escherichia coli clinical isolate 94474 assessed as inhibition of bacterial growth incubated for 18 hrs in presence of Rifampicin by two fold broth microdilution checkerboard assay; type: functional
Pseudomonas aeruginosa [27] = experiment: Antibacterial activity against multi-drug resistant Pseudomonas aeruginosa clinical isolate 101243 assessed as inhibition of bacterial growth incubated for 18 hrs by two fold broth microdilution assay; type: functional
Pseudomonas aeruginosa [28] = experiment: Antibiotic adjuvant activity against multi-drug resistant Pseudomonas aeruginosa clinical isolate PA114228 assessed as fractional inhibitory concentration index incubated for 18 hrs in presence of doxycycline by two fold broth microdilution checkerboard assay; type: functional
Acinetobacter baumannii [29] = experiment: Antibiotic adjuvant activity against multi-drug resistant Acinetobacter baumannii clinical isolate 92247 assessed as inhibition of bacterial growth incubated for 18 hrs in presence of Rifampicin by two fold broth microdilution checkerboard assay; type: functional
Pseudomonas aeruginosa [30] = experiment: Antibacterial activity against multi-drug resistant Pseudomonas aeruginosa clinical isolate 114228 assessed as inhibition of bacterial growth incubated for 18 hrs by two fold broth microdilution assay; type: functional
Pseudomonas aeruginosa [31] = experiment: Antibiotic adjuvant activity against multi-drug resistant Pseudomonas aeruginosa clinical isolate PA114228 assessed as inhibition of bacterial growth incubated for 18 hrs in presence of doxycycline by two fold broth microdilution checkerboard assay; type: functional
Pseudomonas aeruginosa [32] = experiment: Antibiotic adjuvant activity against multi-drug resistant Pseudomonas aeruginosa clinical isolate PA264 assessed as doxycycline MIC incubated for 18 hrs in presence of doxycycline by two fold broth microdilution checkerboard assay; type: functional
Pseudomonas aeruginosa [33] = experiment: Antibiotic adjuvant activity against multi-drug resistant Pseudomonas aeruginosa clinical isolate PA264 assessed as rifampicin MIC incubated for 18 hrs in presence of Rifampicin by two fold broth microdilution checkerboard assay; type: functional
Pseudomonas aeruginosa [34] = experiment: Antibiotic adjuvant activity against multi-drug resistant Pseudomonas aeruginosa clinical isolate PA101243 assessed as fold potentiation incubated for 18 hrs in presence of doxycycline by two fold broth microdilution checkerboard assay; type: functional

Q: What does the source list for `Cl.NC[C@H]1O[C@H](O[C@H]2[C@H](OCc3ccccc3)[C@@H](O[C@H]3O[C@H](COCc4ccccc4)[C@@H](OCc4ccccc4)[C@H](N)[C@H]3OCc3ccccc3)[C@H](N)C[C@@H]2N)[C@H](N)C[C@@H]1OCc1ccccc1`?
A: MIC (Escherichia coli [1]): 1 µg/mL; fold change (FC) (Pseudomonas aeruginosa [2]): 1; fold change (FC) (Escherichia coli [3]): 1024; MIC (Acinetobacter baumannii [4]): 64 µg/mL; fold change (FC) (Pseudomonas aeruginosa [5]): 8; MIC (Pseudomonas aeruginosa [6]): 8 µg/mL; MIC (Acinetobacter baumannii [7]): 64 µg/mL; MIC (Pseudomonas aeruginosa [8]): 8 µg/mL; fractional inhibitory concentration index (FICI) (Pseudomonas aeruginosa [9]): 1.063; fractional inhibitory concentration index (FICI) (Escherichia coli [10]): 0.313; fold change (FC) (Pseudomonas aeruginosa [11]): 4; MIC (Pseudomonas aeruginosa [12]): 128 µg/mL; MIC (Acinetobacter baumannii [13]): 0.004 µg/mL; MIC (Acinetobacter baumannii [14]): 0.004 µg/mL; fold change (FC) (Escherichia coli [15]): 32; fractional inhibitory concentration index (FICI) (Pseudomonas aeruginosa [16]): 1.063; MIC (Pseudomonas aeruginosa [17]): 8 µg/mL; fractional inhibitory concentration index (FICI) (Acinetobacter baumannii [18]): 0.251; MIC (Enterobacterales): ≤ 4 µg/mL; MIC (Pseudomonas aeruginosa [19]): 8 µg/mL; MIC (Acinetobacter baumannii [20]): 4 µg/mL; Activity (Cell membrane): Tde; MIC (Escherichia coli [21]): 8 µg/mL; MIC (Pseudomonas aeruginosa [22]): 8 µg/mL; fractional inhibitory concentration index (FICI) (Pseudomonas aeruginosa [23]): 0.563; MIC (Pseudomonas aeruginosa [24]): 0.5 µg/mL; MIC (Pseudomonas aeruginosa [25]): 128 µg/mL; MIC (Escherichia coli [26]): 4 µg/mL; MIC (Pseudomonas aeruginosa [27]): 64 µg/mL; fractional inhibitory concentration index (FICI) (Pseudomonas aeruginosa [28]): 1.063; MIC (Acinetobacter baumannii [29]): 8 µg/mL; MIC (Pseudomonas aeruginosa [30]): 64 µg/mL; MIC (Pseudomonas aeruginosa [31]): 8 µg/mL; MIC (Pseudomonas aeruginosa [32]): 64 µg/mL; MIC (Pseudomonas aeruginosa [33]): 16 µg/mL; fold change (FC) (Pseudomonas aeruginosa [34]): 1
